These results are taken from paper PMC6534296, “Structural analysis of Cytochrome P450 BM3 mutant M11 in complex with dithiothreitol” (PLoS ONE, 2019).

The target of the assay is T1, Cytochrome P450 BM3 (CYP102A1) mutant M11 (Priestia megaterium, UniProt P14779, E144G/E268V/E65G/F82I/F88V/G416S/H286Y/L189Q/R48L/Y199C).
T1 construct: heme domain (stop codon introduced after residue 473)
The experiment in a line: X-ray crystal structure ([…] Å) and UV/Vis difference spectral titration. Type of assay: binding.

T1 sequence (P14779 1-474 R48L/E65G/F82I/F88V/E144G/L189Q/Y199C/E268V/H286Y/G416S): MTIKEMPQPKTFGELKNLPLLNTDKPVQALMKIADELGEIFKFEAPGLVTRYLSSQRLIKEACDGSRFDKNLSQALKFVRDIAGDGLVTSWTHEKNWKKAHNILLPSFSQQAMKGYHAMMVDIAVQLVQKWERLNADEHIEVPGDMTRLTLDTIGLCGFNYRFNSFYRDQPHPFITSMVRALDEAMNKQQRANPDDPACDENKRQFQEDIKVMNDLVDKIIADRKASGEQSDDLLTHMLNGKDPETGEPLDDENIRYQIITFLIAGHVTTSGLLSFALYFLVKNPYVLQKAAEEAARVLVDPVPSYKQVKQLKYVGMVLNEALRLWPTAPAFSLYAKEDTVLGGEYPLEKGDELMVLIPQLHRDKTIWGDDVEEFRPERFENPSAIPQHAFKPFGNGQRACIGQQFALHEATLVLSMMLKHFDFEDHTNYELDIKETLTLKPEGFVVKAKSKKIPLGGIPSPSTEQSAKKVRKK

As for `O[C@@H](CS)[C@@H](O)CS` (racemic) [DTT, dithiothreitol], the dissociation constant Kd was 56.8 ± 1.3 µM.
